# From patent US20250302795A1, “SMALL MOLECULE COMPOUNDS WITH NEGATIVE REGULATORY EFFECTS ON Nrf2 SIGNALING [sequence] AND THEIR POTENTIAL APPLICATIONS” (Beijing Hebabiz Biotechnology Co., Inc., priority 2022, published 2025)
# Tests used:
# Format in all cases: in vivo, rat
# [1] = Body weight of rats, high-fat diet non-alcoholic steatohepatitis model; conditions: positive control group, in g (unit assumed)
# Method: (§1) The normal control group was fed a standard diet for twelve weeks while the other groups were fed a high-fat diet consisting of 88% basal diet+10% lard+2% cholesterol for twelve weeks. After establishing the model, the drug groups received their respective treatments at a dosage of 10 ml/kg while the normal and model groups received an equal volume of 0.5% CMC-Na solution. The rats were provided with ad libitum access to water and food, while the animal chamber was maintained under controlled conditions of quietness, natural lighting, a temperature of 25±0.5° C., and a humidity level of 55±5%. The rats' body weights were measured once per week and recorded.
# The rats were weighed weekly to monitor the fluctuations in body weight within each experimental group.
# [2] = test system: rats with non-alcoholic steatohepatitis induced by high-fat diet; assay: Liver indices, non-alcoholic steatohepatitis model induced by high-fat diet
# Method: as §1
# (3) Liver indices was determined by dividing the wet weight of the liver by the body weight of rats and multiplying by 100%, after liver tissue was isolated, washed with normal saline, dried using filter paper, and weighed following blood sampling from the abdominal aorta. (4) HE staining and oil red staining were performed on liver tissue samples obtained from the abdominal aorta of rats. The tissue was fixed in 10% neutral formalin, followed by embedding, slicing, dewaxing, staining, transparency treatment, and sealing using routine procedures. Microscopic examination was conducted to observe the pathological changes in rat liver tissues across different groups. Additionally, the NASH-CRN scoring system was employed to assess NAS scores. (5) Detection of Proteins Associated with Non-Alcoholic Steatohepatitis
# [3] = Body weight of rats, high-fat diet + CCl4 non-alcoholic steatohepatitis model; conditions: positive control group, in g (unit assumed)
# Method: (§2) The normal control group were fed a standard diet while the other groups were exclusively fed a high-fat diet consisting of 88% basal diet +10% lard +2% cholesterol for the initial six weeks. Starting from the seventh week, they received subcutaneous injections of a 30% CCl4 olive oil solution at a dosage of 0.2 ml/100 g behind their back twice per week for a total of four times. Once the model was successfully replicated, the corresponding drugs were administered orally (10 ml/kg) in each treatment group, and both the normal control group and the model group received equal volumes of a 0.5% CMC-Na solution once daily for ten consecutive weeks. Throughout the experimental period, the rats were provided with ad libitum access to food and water, while the animal chamber was maintained under controlled conditions of quietness, natural lighting, a temperature of 25±0.5° C., and a humidity level of 55±5%. The rats' body weights were measured once per week and recorded.
# The weight changes of rats in each group were compared by conducting weekly weigh-ins after the experiment.
# [4] = test system: rats with nonalcoholic steatohepatitis induced by a high-fat diet and CCl4; assay: Liver indices, non-alcoholic steatohepatitis model induced by high-fat diet and CCl4; conditions: positive control group
# Method: as §2
# After blood sampling from the abdominal aorta of rats, the liver tissue was isolated, rinsed with normal saline solution, dried using filter paper, weighed accurately, and subsequently calculated the Liver indices: Liver indices=wet liver weight/body weight×100%.
# [5] = test system: rats with nonalcoholic steatohepatitis induced by a high-fat diet and CCl4; assay: Four indices of serum hepatic fibrosis, high-fat diet and CCl4 model; conditions: positive control group
# Method: as §2, with “Starting” for “The normal control group were fed a standard diet while the other groups were exclusively fed a high-fat diet consisting of 88% basal diet +10% lard +2% cholesterol for the initial six weeks. Starting”
# At the end of the tenth week of administration, all rats underwent a 16-hour fasting period following their final administration and were intraperitoneally injected with a 20% ulinastatin solution (10 ml/kg) for anesthesia. Subsequently, blood samples were collected from the abdominal aorta and allowed to stand for one hour, and then centrifuged at 4° C. for fifteen minutes at a speed of 3000 r/min. Finally, the upper serum was stored at −80° C. Following the instructions provided with the biochemical index detection kit, levels of HDL-C, LDL-C, NEFA, AST, ALT, UA, TC, TG, PCIII, IV-C LN and HA in rat serum were determined.
# [6] = test system: rats with nonalcoholic steatohepatitis induced by a high-fat diet and CCl4; assay: Liver histopathology (HE, oil red, Masson staining), high-fat diet and CCl4 model; conditions: positive control groups and NR218 high-, medium-, low-dose groups
# Method: as §2
# After collecting blood samples from the abdominal aorta of rats, the liver tissue was isolated and fixed in a 10% neutral formalin solution. Following standard procedures for embedding, sectioning, dewaxing, staining, clearing, and sealing, the liver tissues were subjected to HE (hematoxylin-eosin), Masson's trichrome, and oil red staining techniques respectively. […]
compound,measurement,setting,value
COC(=O)c1cc(OC)c2c(c1-c1c(CO)cc(OC)c3c1OCO3)OCO2 [Bicyclol],body weight,[1]; week 0 (pre-administration),195.09 ± 3.95
same,body weight,[1]; week 1 (pre-administration),254.99 ± 12.09
same,body weight,[1]; week 2 (pre-administration),307.37 ± 12.92
same,body weight,[1]; week 3 (pre-administration),343.86 ± 17.21
same,body weight,[1]; week 4 (pre-administration),379.51 ± 22.29
same,body weight,[1]; week 5 (pre-administration),413.81 ± 26.94
same,body weight,[1]; week 6 (pre-administration),444.77 ± 32.35
same,body weight,[1]; week 7 (pre-administration),461.64 ± 35.88
same,body weight,[1]; week 8 (pre-administration),493.67 ± 41.04
same,body weight,[1]; week 9 (pre-administration),510.27 ± 41.17
same,body weight,[1]; week 10 (pre-administration),526.93 ± 47.38
same,body weight,[1]; week 11 (pre-administration),541.47 ± 50.20
same,body weight,[1]; week 12 (pre-administration),550.05 ± 58.70
same,body weight,[1]; week 13,526.35 ± 68.66
same,body weight,[1]; week 14,515.27 ± 58.62
same,body weight,[1]; week 15,519.07 ± 54.38
same,body weight,[1]; week 16,539.33 ± 58.40
same,body weight,[1]; week 17,562.79 ± 61.59
same,body weight,[1]; week 18,588.75 ± 70.94
same,body weight,[1]; week 19,593.71 ± 72.81
same,body weight,[1]; week 20,586.53 ± 112.38
same,liver indices versus model group (in words),"[2]; NR218 at high, medium and low doses, P<0.01 or P<0.05",significant decrease compared to the model group
same,Liver Indices,"[2]; high-fat diet model, positive control group",3.77 ± 1.17 %
same,body weight,[3]; week 1,195.81 ± 5.12
same,body weight,[3]; week 2,252.07 ± 9.62
same,body weight,[3]; week 3,293.51 ± 34.27
same,body weight,[3]; week 4,366.45 ± 19.21
same,body weight,[3]; week 5,404.78 ± 18.71
same,body weight,[3]; week 6,438.13 ± 24.81
same,body weight,[3]; week 7,471.76 ± 26.05
same,body weight,[3]; week 8,493.73 ± 28.93
same,body weight,[3]; week 9,500.11 ± 35.71
same,body weight,[3]; week 10,516.75 ± 35.02
same,body weight,[3]; week 11,483.11 ± 32.67
same,body weight,[3]; week 12,486.89 ± 36.07
same,body weight,[3]; week 13,508.69 ± 60.33
same,body weight,[3]; week 14,526.54 ± 51.97
same,body weight,[3]; week 15,536.32 ± 44.50
same,body weight,[3]; week 16,559.17 ± 38.21
same,body weight,[3]; week 17,573.81 ± 44.40
same,body weight,[3]; week 18,581.09 ± 46.08
same,Liver Indices,[4],3.48 ± 0.41 %
same,HA,[5],45.78 ± 22.99 µg/L
same,IV-C,[5],13.22 ± 4.50 µg/L
same,LN,[5],110.64 ± 44.60 µg/L
same,PC-III,[5],8.78 ± 1.87 µg/L
same,Oil red O staining of liver tissue (in words),[6],significantly ameliorated steatosis severity and reduced lipid droplet content
